# Measurements taken from paper PMC7897990, “TriTOX: A novel Trichomonas vaginalis assay platform for high-throughput screening of compound libraries” (International Journal for Parasitology: Drugs and Drug …, 2021).
# Read-outs that look alike come from different tables or passages of the source. Starred links: 1 amine or outer side, 2 acyl side, 3 side chain; linkers in the order of their positions; H or OH if unused. Positions of bridges follow the written chain, without caps; N, C: chain ends. Non-standard residues stand in square brackets, D forms with d. Residues, ends and D or L forms follow the SMILES beside them. ξ: configuration not given here. *: point of attachment. hTyr(3S-OH,4S-OH,3'-OSO3H) = N[C@H](C(=O)O)[C@H](O)[C@@H](O)c1ccc(O)c(OS(=O)(=O)O)c1; pTerphenylCO(4''-OnC5H11) = CCCCCOc1ccc(-c2ccc(-c3ccc(C(=O)*)cc3)cc2)cc1; Orn(4R-OH,5R-OH) = O=C([C@H](C[C@@H](O)[C@@H](O)N[*:3])N[*:1])[*:2]; ξOrn(4,5-diOH) = O=C(C(CC(O)C(O)N[*:3])N[*:1])[*:2]; ξhTyr(βξ-OH,γξ-OH) = NC(C(=O)O)C(O)C(O)c1ccc(O)cc1; Pro(3S-OH,4S-Me) = C[C@H]1CN[C@H](C(=O)O)[C@H]1O; Gln(3R-OH) = NC(=O)C[C@@H](O)[C@H](N)C(=O)O; ξPro(3ξ-OH,4ξ-Me) = CC1CNC(C(=O)O)C1O; Palmitoyl = CCCCCCCCCCCCCCCC(=O)*; Hyp = O=C(O)[CH]1C[CH](O)CN1
# Legend:
# [1] = tested on: nontumorigenic neonatal foreskin fibroblast (NFF) cell line
# [2] = tested on: Trichomonas vaginalis G3 trophozoites; settings: for T.vaginalis_Absorbance_Rep1: replicate 1, raw absorbance; for T.vaginalis_Absorbance_Rep2: replicate 2, raw absorbance
# [3] = HTS, parasite screen at 1 µg/mL, replicate 1
# [4] = HTS, parasite screen at 1 µg/mL
# [5] = HTS, parasite screen at 1 µg/mL, replicate 2
# [6] = NFF_NS1 screen 5 µg/mL, single concentration
# [7] = HTS single concentration, parasite screen 1 µg/mL, replicate 1
# [8] = HTS single concentration, parasite screen 1 µg/mL, replicate 2
# [9] = replicate 1, parasite screen at 1 µg/mL
# [10] = replicate 2, parasite screen at 1 µg/mL
smiles,measurement,setting,value
CC1=C[C@H](O/C=C2/C(=O)O[C@@H]3c4ccccc4C[C@H]23)OC1=O [GR24],NFF_Activity,[1]; NFF_NS1 screen at 5 µg/mL,I (otherwise these were reported as inactive (I))
same,T.vaginalis_%inb_Rep1,[2]; [3],14.00%
same,T.vaginalis_Absorbance_Rep1,[2]; [4],0.978
same,T.vaginalis_%inb_Rep2,[2]; [5],4.49%
same,T.vaginalis_Absorbance_Rep2,[2]; [4],0.705
CC[C@H]1OC(=O)[C@H](C)[C@@H](O[C@H]2C[C@@](C)(OC)[C@@H](O)[C@H](C)O2)[C@H](C)[C@@H](O[C@@H]2O[C@H](C)C[C@H](N(C)C)[C@H]2O)[C@](C)(O)C[C@@H](C)CN(C)[C@H](C)[C@@H](O)[C@]1(C)O [BIA-A1312],NFF_Activity,[1]; [6],I (otherwise these were reported as inactive (I))
same,T.vaginalis_%inb_Rep1,[2]; [7],6.35%
same,T.vaginalis_%inb_Rep2,[2]; [8],11.21%
CC[C@H](C)[C@H]1O[C@]2(CC[C@@H]1C)C[C@@H]1C[C@@H](C/C=C(\C)[C@@H](O[C@H]3C[C@H](OC)[C@@H](O[C@H]4C[C@H](OC)[C@@H](O)[C@H](C)O4)[C@H](C)O3)[C@@H](C)/C=C/C=C3\CO[C@@H]4[C@H](O)C(C)C=C(C(=O)O1)[C@]34O)O2 (stereo partly shown) [BIA-I1581],NFF_Activity,"[1]; NFF cells, screen at 5 µg/mL",I (otherwise these were reported as inactive (I))
same,T.vaginalis_%inb_Rep1,[2]; [9],13.44%
same,T.vaginalis_%inb_Rep2,[2]; [10],13.34%
CC(=O)O[C@@H]1C[C@]2(C)[C@@]3(CO)[C@H](O)C(=O)C(C)=C[C@H]3O[C@H]1[C@@]21CO1 [BIA-A1925],NFF_Activity,[1]; [6],I (otherwise these were reported as inactive (I))
same,T.vaginalis_%inb_Rep1,[2]; [7],9.96%
same,T.vaginalis_%inb_Rep2,[2]; [8],14.14%
CC(=O)NCCc1c[nH]c2ccc(O)cc12 [BIA-A1738],NFF_Activity,[1]; [6],I (otherwise these were reported as inactive (I))
same,T.vaginalis_%inb_Rep1,[2]; [7],13.41%
same,T.vaginalis_%inb_Rep2,[2]; [8],15.18%
CC[C@H](C)[C@H]1O[C@]2(C=C[C@@H]1C)C[C@@H]1C[C@@H](C/C=C(\C)[C@@H](O[C@H]3C[C@H](OC)[C@@H](O)[C@H](C)O3)[C@@H](C)/C=C/C=C3\CO[C@@H]4[C@H](O)C(C)=C[C@@H](C(=O)O1)[C@]34O)O2 [BIA-A1585],NFF_Activity,[1]; [6],I (otherwise these were reported as inactive (I))
same,T.vaginalis_%inb_Rep1,[2]; [7],14.27%
same,T.vaginalis_%inb_Rep2,[2]; [8],12.58%
[N-]=[N+]=NCC(=O)N[C@H](CO)[C@H](O)c1ccc([N+](=O)[O-])cc1 [BIA-A1485],NFF_Activity,[1]; [6],I (otherwise these were reported as inactive (I))
same,T.vaginalis_%inb_Rep1,[2]; [7],12.55%
same,T.vaginalis_%inb_Rep2,[2]; [8],16.12%
COC1C=CC=C(C)C(=O)NC2=CC(=O)C=C(C2=O)C(OC)C(C)CC(OC)C(OC)C(C)C=C(C)C1OC(N)=O (stereo not shown) [BIA-H1036],NFF_Activity,"[1]; NFF cells, screen at 5 µg/mL",I (otherwise these were reported as inactive (I))
same,T.vaginalis_%inb_Rep1,[2]; [9],12.63%
same,T.vaginalis_%inb_Rep2,[2]; [10],12.64%
"CCCCCCCCCCCCCCCC(=O)N[C@H]1C[C@@H](O)[C@@H](O)NC(=O)[C@@H]2[C@@H](O)[C@@H](C)CN2C(=O)[C@H]([C@H](O)CC(N)=O)NC(=O)[C@H]([C@H](O)[C@@H](O)c2ccc(O)c(OS(=O)(=O)O)c2)NC(=O)[C@@H]2C[C@@H](O)CN2C(=O)[C@H]([C@@H](C)O)NC1=O [FR 901379] (Palmitoyl-[Orn(4R-OH,5R-OH)]T[Hyp][hTyr(3S-OH,4S-OH,3'-OSO3H)][Gln(3R-OH)][Pro(3S-OH,4S-Me)]; lactam 1-C)",NFF_Activity,[1]; NFF_NS1 screen at 5 µg/mL,I (otherwise these were reported as inactive (I))
same,T.vaginalis_%inb_Rep1,[2]; [3],12.55%
same,T.vaginalis_Absorbance_Rep1,[2]; [4],0.942
same,T.vaginalis_%inb_Rep2,[2]; [5],13.45%
same,T.vaginalis_Absorbance_Rep2,[2]; [4],0.806
COC1=CC(C)=CC(C)C(O)C(C)CC(C)=CC=CC(OC)C(C(C)C(O)C(C)C2(O)CC(O)C(C)C(C(C)C)O2)OC1=O (stereo not shown) [BIA-B1012],NFF_Activity,[1]; [6],I (otherwise these were reported as inactive (I))
same,T.vaginalis_%inb_Rep1,[2]; [7],15.99%
same,T.vaginalis_%inb_Rep2,[2]; [8],16.70%
CCCCCc1c2c(cc(O)c1C(=O)O)OC(=O)c1c(cc(OC)cc1C(=O)CCCC)O2 [BIA-L1671],NFF_Activity,"[1]; NFF cells, screen at 5 µg/mL",I (otherwise these were reported as inactive (I))
same,T.vaginalis_%inb_Rep1,[2]; [9],10.45%
same,T.vaginalis_%inb_Rep2,[2]; [10],14.37%
CCCCCC[C@H]1C(=O)O[C@H](C)[C@@H](O)/C=C/C=C/C=C/C=C/C=C(\C)[C@@H](O)C[C@H](O)C[C@H](O)C[C@H](O)C[C@H](O)C[C@H](O)C[C@@H]1O [Filipin II],NFF_Activity,[1]; NFF_NS1 screen at 5 µg/mL,I (otherwise these were reported as inactive (I))
same,T.vaginalis_%inb_Rep1,[2]; [3],13.79%
same,T.vaginalis_Absorbance_Rep1,[2]; [4],0.965
same,T.vaginalis_%inb_Rep2,[2]; [5],25.09%
same,T.vaginalis_Absorbance_Rep2,[2]; [4],0.967
Cc1c2c(c(O)c3c(O)cccc13)C(=O)[C@]1(O)C(=O)C(C(N)=O)=C(O)[C@@H](N(C)C)[C@@H]1C2.Cl [BIA-A1340],NFF_Activity,[1]; [6],I (otherwise these were reported as inactive (I))
same,T.vaginalis_%inb_Rep1,[2]; [7],6.73%
same,T.vaginalis_%inb_Rep2,[2]; [8],9.54%
COc1cc(-c2ccc(O)cc2)c(OC)c(O)c1-c1ccc(O)cc1 [BIA-T1200],NFF_Activity,"[1]; NFF_NS1 screen at 5 µg/mL, NFF cells",I (otherwise these were reported as inactive (I))
same,T.vaginalis_%inb_Rep1,"[2]; parasite screen at 1 µg/mL, replicate 1",9.75%
same,T.vaginalis_%inb_Rep2,"[2]; parasite screen at 1 µg/mL, replicate 2",14.63%
CC[C@H](C)[C@H]1O[C@]2(C=C[C@@H]1C)C[C@@H]1C[C@@H](C/C=C(\C)[C@@H](O)[C@@H](C)/C=C/C=C3\CO[C@@H]4[C@H](O)C(C)=C[C@@H](C(=O)O1)[C@]34O)O2 [BIA-A1587],NFF_Activity,[1]; [6],I (otherwise these were reported as inactive (I))
same,T.vaginalis_%inb_Rep1,[2]; [7],13.62%
same,T.vaginalis_%inb_Rep2,[2]; [8],16.27%
C=C(C)[C@@H]1CC[C@]2(C(=O)O)CC[C@]3(C)[C@H](CC[C@@H]4[C@@]5(C)CC[C@H](O)C(C)(C)[C@@H]5CC[C@]43C)[C@@H]12 [BIA-B1758],NFF_Activity,[1]; [6],I (otherwise these were reported as inactive (I))
same,T.vaginalis_%inb_Rep1,[2]; [7],14.81%
same,T.vaginalis_%inb_Rep2,[2]; [8],7.30%
CS(=O)(=O)c1ccc([C@@H](O)[C@H](N)CF)cc1.Cl [Florfenicol amine HCl],NFF_Activity,[1]; NFF_NS1 screen at 5 µg/mL,I (otherwise these were reported as inactive (I))
same,T.vaginalis_%inb_Rep1,[2]; [3],15.67%
same,T.vaginalis_Absorbance_Rep1,[2]; [4],1
same,T.vaginalis_%inb_Rep2,[2]; [5],15.11%
same,T.vaginalis_Absorbance_Rep2,[2]; [4],0.829
CCCCC[C@@H]1CC[C@H](C)CCCCC(=O)N(C)[C@@H](Cc2ccc(OCCO)cc2)C(=O)O1 [PF1163B],NFF_Activity,"[1]; NFF fibroblasts, single concentration 5 µg/mL",I (otherwise these were reported as inactive (I))
same,T.vaginalis_%inb_Rep1,"[2]; HTS replicate 1, parasite screen 1 µg/mL",17.85%
same,T.vaginalis_%inb_Rep2,"[2]; HTS replicate 2, parasite screen 1 µg/mL",14.30%
CN1C(=O)c2ccccc2-n2c(nc3ccccc3c2=O)C1=Cc1ccccc1 [BIA-B1646],NFF_Activity,[1]; [6],I (otherwise these were reported as inactive (I))
same,T.vaginalis_%inb_Rep1,[2]; [7],16.10%
same,T.vaginalis_%inb_Rep2,[2]; [8],13.67%
"CCCCCOc1ccc(-c2ccc(-c3ccc(C(=O)NC4CC(O)C(O)NC(=O)C5C(O)C(C)CN5C(=O)C(C(C)O)NC(=O)C(C(O)C(O)c5ccc(O)cc5)NC(=O)C5CC(O)CN5C(=O)C(C(C)O)NC4=O)cc3)cc2)cc1 (stereo not drawn) [BIA-A1423] ({pTerphenylCO(4''-OnC5H11)}-[ξOrn(4,5-diOH)]T[Hyp][ξhTyr(βξ-OH,γξ-OH)]T[ξPro(3ξ-OH,4ξ-Me)]; lactam 1-C; configuration not given here)",NFF_Activity,[1]; [6],I (otherwise these were reported as inactive (I))
same,T.vaginalis_%inb_Rep1,[2]; [7],14.75%
same,T.vaginalis_%inb_Rep2,[2]; [8],12.08%
CC[C@H]1OC(=O)[C@H](C)[C@@H](O[C@H]2C[C@@](C)(OC)[C@@H](O)[C@H](C)O2)[C@H](C)[C@@H](O[C@@H]2O[C@H](C)C[C@H]([N+](C)(C)[O-])[C@H]2O)[C@](C)(O)C[C@@H](C)C(=O)[C@H](C)[C@@H](O)[C@]1(C)O [Erythromycin A N-oxide],NFF_Activity,[1]; NFF_NS1 screen at 5 µg/mL,I (otherwise these were reported as inactive (I))
same,T.vaginalis_%inb_Rep1,[2]; [3],6.03%
same,T.vaginalis_Absorbance_Rep1,[2]; [4],0.821
same,T.vaginalis_%inb_Rep2,[2]; [5],9.83%
same,T.vaginalis_Absorbance_Rep2,[2]; [4],0.756
